# Values joined by “and” are separate entries in the source; they are usually repeats but may differ in a detail not shown here. Equal values may be shown once. Read-outs that look alike come from different tables or passages of the source.
# Assays:
# nikD Asp276Asn [1] = molecular target: T1, nikD Asp276Asn (Streptomyces tendae, UniProt Q9X9P9, D276N); assay: biochemical; assay type: binding
# wild-type nikD [2] = details: spectral titration, 100 mM potassium phosphate buffer, pH 8.0, 25 °C; cited from earlier work
# nikD Glu101Gln [3] = molecular target: T2, nikD Glu101Gln (Streptomyces tendae, UniProt Q9X9P9, E101Q); assay: biochemical; assay type: binding
# nikD Asp276Asn [4] = molecular target: T1, nikD Asp276Asn; assay: Steady-state turnover with P2C and oxygen; assay type: biochemical
# nikD Glu101Gln [5] = molecular target: T2, nikD Glu101Gln; assay: Steady-state turnover with P2C and oxygen; assay type: biochemical
# nikD Glu101Gln [6] = molecular target: T2, nikD Glu101Gln; assay: Anaerobic reductive half-reaction with P2C; assay type: biochemical
# wild-type nikD [7] = details: pH 8.0, 25 °C, cited from earlier work
# nikD Asp276Asn [8] = molecular target: T1, nikD Asp276Asn; assay: Anaerobic reductive half-reaction with P2C; assay type: biochemical
# wild-type nikD [9] = details: saturating P2C and oxygen, pH 8.0, 25 °C; cited from earlier work
# nikD Glu101Gln [10] = molecular target: T2, nikD Glu101Gln; details: pH 8
# wild-type nikD [11] = details: cited from earlier work
# nikD Glu101Gln [12] = molecular target: T2, nikD Glu101Gln; assay: biochemical
# [13] = ionization at the N(3)H position in free FAD; cited from earlier work
# [14] = saturating concentrations of P2C and oxygen
# [15] = apparent second-order rate constant from stopped-flow data, pH 8.0, 25 °C
# [16] = limiting rate of fast phase at saturating P2C, pH 8.0, 25 °C
# [17] = very fast phase preceding fast phase, pH 8.0, 25 °C
# [18] = one-step binding, pH 8.0, 25 °C
smiles,measurement,setting,value
C[Se]CC(=O)O [methylselenoacetate],Kd,nikD Asp276Asn [1],1000 ± 30 µM
same,Kd,wild-type nikD [2],1070 ± 40 µM
same,Kd,nikD Glu101Gln [3],112 ± 3 µM
"O=C(O)C1=NCCCC1 [P2C, piperideine-2-carboxylate]",Ki,nikD Asp276Asn [4],8 µM
same,kcat,"nikD Asp276Asn [4]; saturating P2C and oxygen, sequential mechanism fit, pH 8.0, 25 °C",1.22 ± 0.04 s⁻¹
same,"turnover rate, fold slower than wild-type nikD",nikD Asp276Asn [4]; [14],about 2 fold
same,kcat,"nikD Glu101Gln [5]; saturating P2C and oxygen, ping-pong mechanism fit, pH 8.0, 25 °C",0.50 ± 0.01 s⁻¹
same,"turnover rate, fold slower than wild-type nikD",nikD Glu101Gln [5]; [14],about 5 fold
same,Kd,nikD Glu101Gln [6],1400 ± 200 µM
same,klim/Kd app,nikD Glu101Gln [6]; [15],9 ± 1 × 10^3 M^-1 s^-1
same,klim,nikD Glu101Gln [6]; [16],13.9 ± 0.9 s⁻¹
same,"klim, fold faster than observed turnover rate (kcat)",nikD Glu101Gln [6]; saturating P2C,about 30 fold
same,"klim, fold slower than limiting rate with wild-type nikD",nikD Glu101Gln [6]; saturating P2C,about 4 fold
same,"kvery fast, Y-intercept of linear dependence on P2C concentration",nikD Glu101Gln [6]; [17],10.1 ± 0.9 s⁻¹
same,"kvery fast, slope of linear dependence on P2C concentration",nikD Glu101Gln [6]; [17],8.8 ± 0.2 × 10^3 M^-1 s^-1
same,klim,wild-type nikD [7]; limiting rate of fast phase at saturating P2C,53 ± 1 s⁻¹
same,klim/Kd app,wild-type nikD [7],2.0 ± 0.2 × 10^5 M^-1 s^-1
same,Kd,"wild-type nikD [7]; read-out: Kd app, hyperbolic fit of fast phase",260 ± 20 µM
same,kslow,"wild-type nikD [7]; slow phase, independent of P2C concentration",2.7 ± 0.1 s⁻¹
same,Kd,nikD Asp276Asn [8],110 ± 10 µM
same,klim/Kd app,nikD Asp276Asn [8]; [15],1.01 ± 0.01 × 10^5 M^-1 s^-1 and 1.01 ± 0.09 × 10^5 M^-1 s^-1
same,klim,nikD Asp276Asn [8]; [16],11.1 ± 0.2 s⁻¹
same,"klim, fold faster than observed turnover rate (kcat)",nikD Asp276Asn [8]; saturating P2C,about 10 fold
same,"klim, fold slower than limiting rate with wild-type nikD",nikD Asp276Asn [8]; saturating P2C,about 5 fold
same,kslow,"nikD Asp276Asn [8]; slow phase, independent of P2C concentration, pH 8.0, 25 °C",3.0 ± 0.3 s⁻¹
same,kcat,wild-type nikD [9],2.3 ± 0.2 s⁻¹
O=C(O)c1ccccn1 [picolinate],Kd,nikD Asp276Asn [1],420 ± 20 µM
same,Kd,wild-type nikD [2],290 ± 40 µM
same,k3,nikD Glu101Gln [10],192 ± 9 s⁻¹
same,k4,nikD Glu101Gln [10],27 ± 1 s⁻¹
same,Kd,nikD Glu101Gln [3],151 ± 2 µM
same,k1,wild-type nikD [11]; [18],2.83 ± 0.04 × 10^4 M^-1 s^-1
same,k2,wild-type nikD [11]; [18],8.0 ± 0.7 s⁻¹
same,Kd,"wild-type nikD [11]; read-out: Kd macroscopic (calc), calculated, equals k2/k1, pH 8.0, 25 °C",280 ± 30 µM
same,Kd,nikD Glu101Gln [12],180 ± 30 µM
"Cc1cc2nc3c(=O)[nH]c(=O)nc-3n(C[C@H](O)[C@H](O)[C@H](O)COP(=O)(O)OP(=O)(O)OC[C@H]3O[C@@H](n4cnc5c(N)ncnc54)[C@H](O)[C@@H]3O)c2cc1C [FAD, flavin adenine dinucleotide]",pKa,[13],10.4
O=C(O)C1=CCCCC1 [1-cyclohexenoate],Kd,nikD Asp276Asn [1],6.5 ± 0.9 µM
same,Kd,wild-type nikD [2],12.8 ± 0.9 µM
same,Kd,nikD Glu101Gln [3],0.9 ± 0.1 µM
